Data: patent US11285144B2, “Use of CDK8 inhibitors to treat diseases of inflammation and autoimmunity” (THE BROAD INSTITUTE, INC., priority 2016, dated 2022)
Entries after “also recorded” stand apart in the source; their conditions may differ.

How the values were obtained:
tubulin = experiment: Tubulin polymerization, cell-free assay; assay type: biochemical
From the text: FIG. 4—DOS-derived IL-10 hit BRD0326 perturbs microtubule dynamics. (a) Chemical structure of BRD0326. […] (c) BRD0326's IL-10 enhancing activity depends on its stereochemistry (EC50's=mean of 2 independent experiments). (d) Transcriptional responses elicited by BRD0326 correlate with those induced by small molecule modulators of microtubule dynamics.

[1] = test system: Zymosan A-stimulated BMDCs; experiment: Cytokine production by Zymosan A-stimulated BMDCs; assay type: cell-based, mouse; conditions: zymosan A-stimulated BMDCs
From the text: Towards the goal of identifying new mechanisms of IL-10 regulation, 59,346 small molecules were screened for the ability to enhance IL-10 production by activated bone marrow-derived dendritic cells (BMDCs) using a high-throughput assay developed previously (Sundberg et al., PNAS 111:12468-12473, 2014). Compounds were derived from both commercial collections and structurally and skeletally diverse libraries prepared by diversity-oriented synthesis (DOS). More than 60 hit compounds were identified that reproducibly enhance IL-10 production in a concentration-dependent manner (Table 1). Three distinct chemotypes were prioritized for follow-up based on potency and an initial analysis of structure-activity relationship (SAR) with respect to core scaffold, stereochemistry and side chains (FIG. 2a).
(§1) The pyridinyl tetrahydroquinoline BRD6989 (10) emerged as a prioritized hit in the screen (FIG. 2a and Table 2). […] Thus, BRD6989 enhances IL-10 production in activated human and murine macrophages and dendritic cells by a mechanism that appears most pronounced following stimulation of toll-like receptors-7 (TLR7) and TLR8 by R848.

[2] = test system: human, monocyte-derived DCs; experiment: IL-10 production in human monocyte-derived DCs stimulated with R848; assay type: cell-based
From the text: as §1
(§2) Pre-treatment with these CDK8/19 inhibitors recapitulated the IL-10 potentiating activity of BRD6989 in both BMDCs (FIG. 9b) along with human DCs derived from two independent donors in the context of R848 stimulation (FIGS. 9c and 10a).

R848-stimulated BMDCs [3] = experiment: Cytokine production by R848-stimulated BMDCs; assay type: cell-based, mouse
From the text: as §1, §2

R848-stimulated BMDCs [4] = experiment: IL-10 mRNA levels in BMDCs following R848 stimulation; assay type: cell-based, mouse; conditions: pre-treatment, then R848 stimulation
Method: FIG. 5—Cellular activities of the IL-10 hit BRD6989. […] (d) Effect of BRD6989 on IL-10 production in human DCs stimulated with R848 (each point corresponds to mean±S.D.; n=3 biological replicates from 1 independent experiment using cells derived from 1 donor). (e) Chemical structure of the pan-SIK inhibitor HG-9-91-01. (f) Effect of pre-treating BMDCs with HG-9-91-01 (0.5 μM) or BRD6989 (5 μM) on IL-10 mRNA levels following stimulation with R848 (each point corresponds to mean±S.D.; n=4 biological replicates from 1 independent experiment; *, P<0.05; ***, P<0.001 using unpaired, two-tailed Student's t test). Data from all panels is representative of at least 2 independent experiments.
Based on its ability to selectively potentiate IL-10 production by a mechanism that appears temporally distinct from CREB activation, BRD6989 was prioritized for MOA studies.

[5] = test system: BMDCs stimulated with R848 or Zymosan A; experiment: Co-treatment of BMDCs with T-5224, cytokine production; assay type: cell-based, mouse; conditions: T-5224 100 μM
Method: FIG. 13—Modulation of c-Jun/AP-1 links CDK8 inhibition to enhanced IL-10 production. (a) CDK8 responsive signaling pathways in activated BMDMs as identified by the highly parallel reporter gene assay TF-Seq. Reporter data is integrated for time points between 15 min 4 hr from 1 independent experiment. Dashed lines correspond to FDR<0.05 as corrected by Benjamin-Hochberg testing. (b) Relative to all highly expressed genes, JunB binding sites are enriched among the subset of genes induced by CDK8 inhibition (see Online Methods). […] Data is representative of 2 independent experiments. […] Data is representative of 2 independent experiments. […] CpG, synthetic CpG-containing oligonucleotide; FLA, flagellin A; LPS, lipopolysaccharide; MDP, muramyldipeptide; Pam3cys, synthetic triacylated lipoprotein; poly(I:C), polyinosinic-polycytidylic acid; SeV, Sendai virus; TDB, trehalose-6,6-dibehenate.
FIG. 15—CDK8 inhibition enhances AP-1 activity during innate immune activation. (a) Time course of AP-1 reporter activity in BMDMs pre-treated with dCA (0.1 μM) or BRD6989 (5 μM) prior to stimulation with the indicated viruses or microbial ligands for the indicated time points (each point corresponds to TF-Seq reporter data derived from 1 independent experiment). […] Data is from 1 independent experiment. (c) Chemical structure of the c-Fos/AP-1 inhibitor T-5224. […] Data in panels (c,d) are representative of 2 independent experiments. CpG, synthetic CpG-containing oligonucleotide; FLA, flagellin; LPS, lipopolysaccharide; MDP, muramyldipeptide; Pam3cys, synthetic triacylated lipoprotein; Poly(I:C), polyinosinic-polycytidylic acid; SeV, Sendai virus; TDB, trehalose-6,6-dibehenate.
Given the presence of an AP1 consensus motif in IL-10 and evidence that potentiation of MAP kinase signaling can increase IL-10 production (Saraiva et al., Nat Rev Immunol 10:170-81, 2010; Wang et al., Nat Commun 5:3479, 2014; Na et al., Science Signaling 8:2015), it was hypothesized that increased AP-1 activity resulting from reduced c-Jun Ser243 phosphorylation may mediate activation of IL-10 following CDK8 inhibition.

CS(=O)(=O)N1[C@H](C#N)[C@H](c2ccc(C#Cc3cccc(F)c3)cc2)[C@H]1CO [BRD0326]
tubulin / microtubule polymerization (tubulin): suppressed microtubule polymerization; also recorded: suppresses tubulin polymerization
IL-10 production [1]: potentiates IL-10 production by Zymosan A-stimulated BMDCs to a similar degree as PGE2

Cn1ncc2cc(-c3cnc(N)c(Cl)c3N3CCC4(CCNC4=O)CC3)ccc21 [CCT251921]
IL-10 production [2]: recapitulate IL-10 potentiation by BRD6989
IL-10 production (R848-stimulated BMDCs [3]): recapitulate the IL-10 enhancing activity of BRD6989

COc1ccc(N(C(=O)Nc2c(C)cccc2C)c2cc(Nc3ccc(N4CCN(C)CC4)cc3)ncn2)c(OC)c1 [HG-9-91-01, reference compound]
IL-10 mRNA levels (R848-stimulated BMDCs [4]): elevate Il-10 mRNA immediately following microbial stimulation without greatly extending the duration of this response

O=C(O)CCc1cc(C(=O)c2ccc(OC3CCCC3)cc2O)ccc1OCc1ccc2c(=O)[nH]oc2c1 [T-5224]
production of IL-6 or TNFα on co-incubation with dCA ([5]; R848): does not affect production of IL-6 or TNFα
IL-10 production on co-treatment with dCA ([5]; R848 or Zymosan A): suppressed IL-10 production; also recorded: suppresses the IL-10 enhancing activity of dCA
IL-10 increase induced by HG-9-91-01 on co-treatment ([5]; Zymosan A): did not affect; also recorded: does not affect up-regulation of IL-10 or suppression of IL-6

CN(C)C/C=C/C(=O)Nc1ccc(C(=O)Nc2cccc(Nc3ncc(Cl)c(-c4c[nH]c5ccccc45)n3)c2)cc1 [THZ-1]
IL-10 production (R848-stimulated BMDCs [3]): not enhanced
